{"source": "patent US11160788B2", "about": "“Caspase-1 inhibition and uses thereof for prevention and treatment of neurological conditions” (priority 2016, dated 2021)", "key": {"recombinant human Casp1": {"target": "T1, recombinant human Casp1 (Homo sapiens, UniProt P29466)", "T1 sequence (P29466 120-297 limits assumed)": "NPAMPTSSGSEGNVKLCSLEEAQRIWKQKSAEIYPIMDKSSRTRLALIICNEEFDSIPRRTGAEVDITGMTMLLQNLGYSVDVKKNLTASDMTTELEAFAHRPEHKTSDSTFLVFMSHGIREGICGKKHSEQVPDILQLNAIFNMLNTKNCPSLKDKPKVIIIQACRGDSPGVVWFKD", "T1 sequence (P29466 317-404 limits assumed)": "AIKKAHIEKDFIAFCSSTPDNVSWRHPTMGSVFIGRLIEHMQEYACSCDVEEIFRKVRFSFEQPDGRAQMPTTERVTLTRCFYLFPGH", "assay": "Caspase inhibition IC50, recombinant human Casp1", "type": "biochemical", "conditions": "read-out: IC50 against human Casp1", "protocol": "(§1) FIG. 14: Selectivity and blood brain permeability of VX-765 and VRT-043198. (a-b) IC50 of VX-765 (a) and VRT-043198 (b) against human Casp1-10. (c-d) IC50 of VX-765 (c) and VRT-043198 (d) against mouse Casp1 and Casp11. (e) Blood brain barrier permeability and presence of VX-765 and VRT-043198 in 3 wild type and 4 J20 mice brain cortex and hippocampus and in plasma. Ratios of brain levels to plasma levels are calculated."}, "mouse recombinant Casp1": {"target": "T2, mouse recombinant Casp1 (Mus musculus, UniProt P29452)", "T2 sequence (P29452 119-296 limits assumed)": "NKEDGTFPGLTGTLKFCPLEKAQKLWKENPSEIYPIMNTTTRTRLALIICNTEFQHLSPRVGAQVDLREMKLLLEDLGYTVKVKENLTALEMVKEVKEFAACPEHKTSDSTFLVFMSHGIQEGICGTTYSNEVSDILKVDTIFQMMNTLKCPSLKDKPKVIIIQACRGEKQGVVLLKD", "T2 sequence (P29452 315-402 limits assumed)": "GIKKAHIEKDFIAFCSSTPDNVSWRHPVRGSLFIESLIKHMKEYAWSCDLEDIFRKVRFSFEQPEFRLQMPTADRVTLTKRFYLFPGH", "assay": "Caspase inhibition IC50, mouse recombinant Casp1", "type": "biochemical", "conditions": "read-out: IC50 against mouse Casp1", "protocol": "as §1"}, "[1]": {"tested_on": "APP^WT-transfected human primary neurons", "assay": "Neuritic beading in APPWT-transfected human primary neurons", "type": "cell-based", "protocol": "(§2) FIG. 13: VX-765 protects CNS primary human neurons (HPN) against APP- or serum deprivation-mediated neuritic beading. (a) MTT assay with increasing dose of VX-765. (b) Fluorescent micrographs showing homogeneous distribution of EGFP in normal neurons and neuritic beading in APP-transfected neurons. (c) Percentage beading in APP-transfected or serum-deprived neurons treated 1 h before and continuously with stressor (Pre-treatment) or 48 h after stressor (post-beading treatment) with 25 or 50 μM VX-765 or with 5 μM Z-YVAD-fmk Casp1 peptide inhibitor. […] (d-e) HPN secreted or cellular Aβ42/total Aβ38+40+42 (d) (F(3,4)=12.73, p=0.0163, ANOVA, Dunnett's post-hoc compared to Serum+DMSO, *p<0.05), and (e) levels of secreted II-1β, IFN-γ, TNF-α, and II-6 from untreated (+S), serum deprived (−S), or serum-deprived human neurons treated with 25 or 50 μM VX-765.\n(§3) EGFP-labeled human primary neurons were either APP^WT transfected or serum deprived. Two treatment strategies were employed to determine VX-765's effects on neuronal degeneration: our Pre-Treatment strategy looked at whether VX-765 could block neuronal degeneration when administered 1 hr prior to APP^WT transfection or serum deprivation, while our Reversal Treatment strategy looked at whether VX-765 could reverse degenerative effects when administered 48 hrs after APP^WT transfection or serum deprivation. Neurons displaying beaded morphology were counted with live imaging and measured as a percentage of the total number of eGFP+ neurons from 24-72 hrs after treatment. The irreversible caspase-1 inhibitor YVAD-fmk was used as positive control in our experiments. Results were obtained from averaging counts for at least 100 eGFP+ neurons per experiment in three independent neuron preparations."}, "[2]": {"tested_on": "serum deprived human primary neurons", "assay": "Neuritic beading in serum-deprived human primary neurons", "type": "cell-based", "conditions": "reversal treatment 48 hrs after serum deprivation", "protocol": "as §2, §3"}}}
{"molecule": "CC(C)(C)[C@H](NC(=O)c1ccc(N)c(Cl)c1)C(=O)N1CCC[C@H]1C(=O)N[C@H]1CC(=O)OC1O", "note": "(stereo partly drawn) [VRT-043198, (2S)-1-((S)-2-(4-amino-3-chlorobenzamido)-3,3-dimethylbutanoyl)-N-((3S)-2-hydroxy-5-oxotetrahydrofuran-3-yl)pyrrolidine-2-carboxamide]", "values": [{"measurement": "IC50", "setting": "recombinant human Casp1", "value": 0.00991, "unit": "µM"}, {"measurement": "IC50", "setting": "mouse recombinant Casp1", "value": 0.018, "unit": "µM"}]}
{"molecule": "Z-YVAD-fmk", "values": [{"measurement": "neuritic beading", "setting": "[1]; pre-treatment 1 h before and continued, VX-765 25 and 50 μM, Z-YVAD-fmk 5 μM, 48 and 72 h", "value": "prevented neuritic beading"}, {"measurement": "neuritic beading", "setting": "[1]; reversal (post-beading) treatment 48 hrs after APP^WT transfection, listed as YVAD", "value": "not able to reverse neuritic beading at any time-point"}, {"measurement": "neuritic beading", "setting": "[1]; reversal (post-beading) treatment 48 hrs after APP^WT transfection, listed as YVAD-fmk", "value": "unable to reverse or prevent neuritic beading at any time-point"}, {"measurement": "neuritic beading", "setting": "[2]", "value": "neither YVAD nor VX-765 were able to reverse neuritic beading"}]}
